From patent US20080021026A1, “BENZOTHIOPHENE INHIBITORS OF RHO KINASE” (priority 2006, published 2008)

target: T1, recombinant N-terminal GST-tagged human Rho kinase 2 (ROCK2, amino acids 1-552) (Homo sapiens, UniProt O75116); experiment: In vitro Rho kinase assay (luciferase-based ATP consumption), ROCK2; assay type: biochemical; settings: ROCK2 IC50, recombinant GST-tagged human ROCK2, luciferase-based ATP consumption
T1 construct: ROCK2, amino acids 1-552; purchased Invitrogen Inc. PV3759
Method: In Vitro Rho Kinase Assay
Rho kinase biochemical assays described below depend on firefly luciferase-based, indirect measurement of total ATP consumption by the kinase following incubation with substrate and ATP. 25 μl of Rho kinase assay buffer (20 mM Tris-HCL [pH 7.5], 1 mM MgCl2, 0.4 mM CaCl2, 0.15 mM EGTA, 0.1 mg/ml bovine serum albumin) containing 0.82 μg/ml of recombinant N-terminal GST-tagged human Rho kinase 1 (ROCK1, amino acids 1-535, Invitrogen Inc., cat. #PV-3691) or recombinant N-terminal GST-tagged human Rho kinase 2 (ROCK2, amino acids 1-552, Invitrogen Inc., cat #PV3759), 100 μg/ml S6 peptide substrate (related to amino acids 218-249 of the human 40S ribosomal protein S6, and suitable for ROCK1 or ROCK2, e.g. Upstate/Millipore Inc., cat #12-420), and 3 µM ATP are dispensed to wells of a 384 multi-well opaque plate. The plate is centrifuged for 30 seconds at approximately 200×g. 240 nl of test compound in DMSO is dispensed to each well by passive pin transfer. The lag phase of this in vitro kinase reaction permits addition of compounds soon after the reaction initiates. The reaction is allowed to incubate at 30° C. for 2 hours. The assay plates are sealed and maintained in a humidified environment. After 2 hours, 25 μl of easylite protein kinase assay reagent (Perkin-Elmer, Inc.) is dispensed. After an additional 10 minute incubation at room temperature (about 22° C.), luminescence activity is measured on a Molecular Devices Analyst multi-mode plate reader or other suitable plate reader. Kinase inhibition results in less ATP consumption, and therefore increased luminescence signal. Negative control activity is measured with DMSO lacking any test compound. The positive control is 2-methyl-1-(4-methylisoquinolin-5-ylsulfonyl)perhydro-1,4-diazepine hydrochloride (aka H-1152P, HCl salt). Efficacy is measured as a percentage of positive control activity. […] In some cases, kinase reactions and compound testing are performed in 1536 multi-well plates under similar conditions, with assay volumes appropriately scaled. The designation NT means the cited example was not tested.

T1 sequence (O75116 1-552): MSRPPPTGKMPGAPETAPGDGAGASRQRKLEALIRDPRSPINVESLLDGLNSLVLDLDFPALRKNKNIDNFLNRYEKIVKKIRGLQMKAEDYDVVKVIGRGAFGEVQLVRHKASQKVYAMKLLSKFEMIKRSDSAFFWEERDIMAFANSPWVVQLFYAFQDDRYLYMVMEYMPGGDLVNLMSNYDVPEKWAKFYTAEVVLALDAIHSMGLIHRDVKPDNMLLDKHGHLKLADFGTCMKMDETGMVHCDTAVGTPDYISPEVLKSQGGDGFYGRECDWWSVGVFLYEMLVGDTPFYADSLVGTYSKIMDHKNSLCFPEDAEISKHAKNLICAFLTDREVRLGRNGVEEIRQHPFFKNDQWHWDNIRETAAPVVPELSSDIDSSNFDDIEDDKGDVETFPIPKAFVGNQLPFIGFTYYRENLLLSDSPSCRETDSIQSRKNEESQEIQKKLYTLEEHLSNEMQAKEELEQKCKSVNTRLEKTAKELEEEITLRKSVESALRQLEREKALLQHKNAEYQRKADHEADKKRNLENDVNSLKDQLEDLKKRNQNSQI

Compound | IC50 [µM]
Cc1c(-c2ccnc(N)n2)sc2ccc(C(=O)NCc3ccc(Cl)cc3Cl)cc12 [Example 447, Cc1c(sc2ccc(cc12)C(═O)NCc3ccc(Cl)cc3Cl)-c4ccnc(N)n4] | > 5
Cc1c(-c2ccnc(N)n2)sc2ccc(C(=O)NCCc3ccccc3Cl)cc12 [Example 427, Cc1c(sc2ccc(cc12)C(═O)NCCc3ccccc3Cl)-c4ccnc(N)n4] | < 5

same assay, conditions: recombinant GST-tagged human ROCK2, luciferase-based ATP consumption; read-out: ROCK2 IC50

Compound | IC50 [µM]
COc1ccc(CCNC(=O)c2ccc3sc(-c4ccnc(N)n4)c(C)c3c2)cc1 [Example 423, COc1ccc(CCNC(═O)c2ccc3sc(c(C)c3c2)-c4ccnc(N)n4)cc1] | < 5
Cc1c(-c2ccnc(N)n2)sc2ccc(C(=O)N(C)CCC#N)cc12 [Example 465, CN(CCC#N)C(═O)c1ccc2sc(c(C)c2c1)-c3ccnc(N)n3] | < 5
Cc1c(-c2ccnc(N)n2)sc2ccc(C(=O)N3CCCCC3CO)cc12 (stereo not shown) [Example 489, Cc1c(sc2ccc(cc12)C(═O)N3CCCCC3CO)-c4ccnc(N)n4] | < 5
CCN(C(=O)c1ccc2sc(-c3ccnc(N)n3)c(C)c2c1)C(Cc1ccccc1)c1ccco1 (stereo not shown) [Example 560, CCN(C(Cc1ccccc1)c2ccco2)C(═O)c3ccc4sc(c(C)c4c3)-c5ccnc(N)n5] | < 5
CNC(=O)c1ccc2sc(-c3ccnc(N)n3)c(C)c2c1 [Example 329, CNC(═O)c1ccc2sc(c(C)c2c1)-c3ccnc(N)n3] | < 5
Cc1c(-c2ccnc(N)n2)sc2ccc(C(=O)N(C)CCO)cc12 [Example 464, CN(CCO)C(═O)c1ccc2sc(c(C)c2c1)-c3ccnc(N)n3] | < 5
Cc1ccc(S(=O)(=O)NCCNC(=O)c2ccc3sc(-c4ccnc(N)n4)c(C)c3c2)cc1 [Example 458, Cc1ccc(cc1)S(═O)(═O)NCCNC(═O)c2ccc3sc(c(C)c3c2)-c4ccnc(N)n4] | < 5
Cc1c(-c2ccnc(N)n2)sc2ccc(C(=O)NC3CC3)cc12 [Example 333, Cc1c(sc2ccc(cc12)C(═O)NC3CC3)-c4ccnc(N)n4] | < 5
Cc1c(-c2ccnc(N)n2)sc2ccc(C(=O)N3CCN(Cc4ccccc4)CC3)cc12 [Example 521, Cc1c(sc2ccc(cc12)C(═O)N3CCN(CC3)Cc4ccccc4)-c5ccnc(N)n5] | > 5
Cc1c(-c2ccnc(N)n2)sc2ccc(C(=O)NCCN3CCCCC3)cc12 [Example 387, Cc1c(sc2ccc(cc12)C(═O)NCCN3CCCCC3)-c4ccnc(N)n4] | < 5
C=CCN(C(=O)c1ccc2sc(-c3ccnc(N)n3)c(C)c2c1)C1CCCCC1 [Example 503, Cc1c(sc2ccc(cc12)C(═O)N(CC═C)C3CCCCC3)-c4ccnc(N)n4] | < 5
Cc1c(-c2ccnc(N)n2)sc2ccc(C(=O)N[C@@H](C)c3ccccc3)cc12 [Example 376, C[C@H](NC(═O)c1ccc2sc(c(C)c2c1)-c3ccnc(N)n3)c4ccccc4] | < 5
CC(=O)N[C@H]1CCN(C(=O)c2ccc3sc(-c4ccnc(N)n4)c(C)c3c2)C1 [Example 495, CC(═O)N[C@H]1CCN(C1)C(═O)c2ccc3sc(c(C)c3c2)-c4ccnc(N)n4] | > 5
COc1cc(CN(C)C(=O)c2ccc3sc(-c4ccnc(N)n4)c(C)c3c2)cc(OC)c1OC [Example 555, COc1cc(CN(C)C(═O)c2ccc3sc(c(C)c3c2)-c4ccnc(N)n4)cc(OC)c1OC] | > 5
COc1ccccc1CNC(=O)c1ccc2sc(-c3ccnc(N)n3)c(C)c2c1 [Example 402, COc1ccccc1CNC(═O)c2ccc3sc(c(C)c3c2)-c4ccnc(N)n4] | < 5
Cc1c(-c2ccnc(N)n2)sc2ccc(C(=O)N(CCC#N)Cc3ccccc3)cc12 [Example 433, Cc1c(sc2ccc(cc12)C(═O)N(CCC#N)Cc3ccccc3)-c4ccnc(N)n4] | < 5
Cc1c(-c2ccnc(N)n2)sc2ccc(C(=O)NCCN)cc12 [Example 336, Cc1c(sc2ccc(cc12)C(═O)NCCN)-c3ccnc(N)n3] | < 5
Cc1c(-c2ccnc(N)n2)sc2ccc(C(=O)N3CCCC4CCCCC43)cc12 (stereo not shown) [Example 502, Cc1c(sc2ccc(cc12)C(═O)N3CCCC4CCCCC34)-c5ccnc(N)n5] | > 5
Cc1c(-c2ccnc(N)n2)sc2ccc(C(=O)NC(CO)C(C)C)cc12 (stereo not shown) [Example 362, CC(C)C(CO)NC(═O)c1ccc2sc(c(C)c2c1)-c3ccnc(N)n3] | < 5
Cc1c(-c2ccnc(N)n2)sc2ccc(C(=O)N3CCN(CC4CCCCC4)CC3)cc12 [Example 527, Cc1c(sc2ccc(cc12)C(═O)N3CCN(CC3)CC4CCCCC4)-c5ccnc(N)n5] | > 5
Cc1c(-c2ccnc(N)n2)sc2ccc(C(=O)NCCc3cccc(F)c3)cc12 [Example 407, Cc1c(sc2ccc(cc12)C(═O)NCCc3cccc(F)c3)-c4ccnc(N)n4] | < 5

Second part, the compound after the results:

IC50 [µM] | Compound
> 5 | Cc1c(-c2ccnc(N)n2)sc2ccc(C(=O)NCc3ccccc3OC(F)(F)F)cc12 [Example 453, Cc1c(sc2ccc(cc12)C(═O)NCc3ccccc3OC(F)(F)F)-c4ccnc(N)n4]
< 5 | Cc1c(-c2ccnc(N)n2)sc2ccc(C(=O)N3Cc4ccccc4C3)cc12 [Example 491, Cc1c(sc2ccc(cc12)C(═O)N3Cc4ccccc4C3)-c5ccnc(N)n5]
< 5 | Cc1c(-c2ccnc(N)n2)sc2ccc(C(=O)NCCc3c[nH]c4ccccc34)cc12 [Example 435, Cc1c(sc2ccc(cc12)C(═O)NCCc3c[nH]c4ccccc34)-c5ccnc(N)n5]
< 5 | Cc1c(-c2ccnc(N)n2)sc2ccc(C(=O)N(CCC#N)Cc3cccnc3)cc12 [Example 512, Cc1c(sc2ccc(cc12)C(═O)N(CCC#N)Cc3cccnc3)-c4ccnc(N)n4]
> 5 | Cc1c(-c2ccnc(N)n2)sc2ccc(C(=O)N(CCc3ccccc3)Cc3ccccc3)cc12 [Example 556, Cc1c(sc2ccc(cc12)C(═O)N(CCc3ccccc3)Cc4ccccc4)-c5ccnc(N)n5]
> 5 | Cc1c(-c2ccnc(N)n2)sc2ccc(C(=O)N(C)CCc3ccccn3)cc12 [Example 501, CN(CCc1ccccn1)C(═O)c2ccc3sc(c(C)c3c2)-c4ccnc(N)n4]
< 5 | Cc1c(-c2ccnc(N)n2)sc2ccc(C(=O)NCc3ccccc3)cc12 [Example 363, Cc1c(sc2ccc(cc12)C(═O)NCc3ccccc3)-c4ccnc(N)n4]
> 5 | Cc1c(-c2ccnc(N)n2)sc2ccc(C(=O)NC3CCCCC3C)cc12 (stereo not shown) [Example 371, CC1CCCCC1NC(═O)c2ccc3sc(c(C)c3c2)-c4ccnc(N)n4]
> 5 | Cc1c(-c2ccnc(N)n2)sc2ccc(C(=O)N3CCN(c4ccc(C(F)(F)F)cc4)CC3)cc12 [Example 565, Cc1c(sc2ccc(cc12)C(═O)N3CCN(CC3)c4ccc(cc4)C(F)(F)F)-c5ccnc(N)n5]
< 5 | Cc1c(-c2ccnc(N)n2)sc2ccc(C(=O)N(C)CCc3ccccc3)cc12 [Example 500, CN(CCc1ccccc1)C(═O)c2ccc3sc(c(C)c3c2)-c4ccnc(N)n4]
< 5 | C#CCN(C)C(=O)c1ccc2sc(-c3ccnc(N)n3)c(C)c2c1 [Example 461, CN(CC#C)C(═O)c1ccc2sc(c(C)c2c1)-c3ccnc(N)n3]
> 5 | COC[C@@H]1CCCN1C(=O)c1ccc2sc(-c3ccnc(N)n3)c(C)c2c1 [Example 487, COC[C@@H]1CCCN1C(═O)c2ccc3sc(c(C)c3c2)-c4ccnc(N)n4]
> 5 | Cc1c(-c2ccnc(N)n2)sc2ccc(C(=O)NC(C)CC(C)C)cc12 (stereo not shown) [Example 359, CC(C)CC(C)NC(═O)c1ccc2sc(c(C)c2c1)-c3ccnc(N)n3]
< 5 | Cc1c(-c2ccnc(N)n2)sc2ccc(C(=O)N(C)C[C@H](O)c3ccc(O)c(O)c3)cc12 [Example 528, CN(C[C@H](O)c1ccc(O)c(O)c1)C(═O)c2ccc3sc(c(C)c3c2)-c4ccnc(N)n4]
< 5 | C#CCNC(=O)c1ccc2sc(-c3ccnc(N)n3)c(C)c2c1 [Example 331, Cc1c(sc2ccc(cc12)C(═O)NCC#C)-c3ccnc(N)n3]
< 5 | Cc1c(-c2ccnc(N)n2)sc2ccc(C(=O)NCc3ccc(F)cc3F)cc12 [Example 412, Cc1c(sc2ccc(cc12)C(═O)NCc3ccc(F)cc3F)-c4ccnc(N)n4]
< 5 | Cc1c(-c2ccnc(N)n2)sc2ccc(C(=O)NCCN3CCCC3)cc12 [Example 372, Cc1c(sc2ccc(cc12)C(═O)NCCN3CCCC3)-c4ccnc(N)n4]
> 5 | Cc1cccc(N2CCN(C(=O)c3ccc4sc(-c5ccnc(N)n5)c(C)c4c3)CC2C)c1 (stereo not shown) [Example 535, CC1CN(CCN1c2cccc(C)c2)C(═O)c3ccc4sc(c(C)c4c3)-c5ccnc(N)n5]
< 5 | COc1ccc(CNC(=O)c2ccc3sc(-c4ccnc(N)n4)c(C)c3c2)cc1OC [Example 440, COc1ccc(CNC(═O)c2ccc3sc(c(C)c3c2)-c4ccnc(N)n4)cc1OC]
< 5 | CCOC(=O)CC1C(=O)NCCN1C(=O)c1ccc2sc(-c3ccnc(N)n3)c(C)c2c1 (stereo not shown) [Example 529, CCOC(═O)CC1N(CCNC1═O)C(═O)c2ccc3sc(c(C)c3c2)-c4ccnc(N)n4]
